Measured values published in PubChem BioAssay AID179 (DTP/NCI, 2004).
The source made the active and inactive calls.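 The calls were made as follows: active = compounds giving half or more protection of infected cells from virus-caused growth loss, again on retest; inactive = the rest.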

Tested on: CEM cells HIV-1 protection, formazan growth assay
Test: NCI AIDS Antiviral Assay
Details: for IC50: measured here: growth of uninfected CEM cells
Outline: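 Protection of CEM cells against HIV-1 measured as cell growth via soluble formazan read-out, with five concentrations tested on both infected and uninfected cells; failure to protect may reflect toxicity.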

| SMILES | EC50 [µM] | IC50 [µM] | outcome |
| --- | --- | --- | --- |
| [Cl][Pd][Cl].[NH-]CCN1CC1 | > 200 | 12.3 | – |
| O=c1oc2ccccc2cc1F | > 302 | > 302 | – |
| Cc1cn(C2OC(CO)C(CN=[N+]=[N-])C2O)c(=O)[nH]c1=O (stereo not given) | > 200 | > 200 | – |
| O=C1CCC2(c3ccc(Cl)cc3)Nc3ccncc3N12 (stereo not given) | > 631 | 91.2 | – |
| O=C(N=c1ccc2nc(=O)[nH]n(O)c-2c1)C(F)(F)F | > 200 | 186 | – |
| O=[N+]([O-])c1ccccc1S(=O)c1ccccc1[N+](=O)[O-] | > 204 | 3.47 | – |
| CC1(C)SC(C)(C)N2C(=O)[C@H]3N(C(=O)[C@@H]21)C(C)(C)SC3(C)C | > 75.9 | > 75.9 | – |
| CC(C)CC(C#CCCOC(=O)c1ccccc1)OC(=O)c1ccccc1 (stereo not given) | > 200 | 95.5 | – |
| CC#COP(=O)(OCC)OCC | > 251 | > 251 | – |
| CCOC(=O)CSC(=O)NCCCl | > 1100 | 537 | – |
| O=c1c2c(oc3ccccc13)-c1ccccc1OC2 | > 200 | > 200 | – |
| NC(=O)COC(=O)c1c(Cl)nc2sccn12 | > 347 | > 347 | – |
| COC1/C=C\OC2(C)Oc3c(C)c(O)c4c(O)c(c(C=Nc5ccc6ccccc6c5)c(O)c4c3C2=O)NC(=O)/C(C)=C\C=C/C(C)C(O)C(C)C(O)C(C)C(OC(C)=O)C1C (stereo not given) | > 200 | 35.5 | – |
| NCCCNCCSSCCCCS(=O)O | – | – | inactive |
| CC(C)C(N)=Nc1ccc(Cl)c(Cl)c1 | > 200 | 72.4 | – |
| Cc1cccc2c(N)c3cccc(C(=O)NCC[N+]4(Cc5ccc([N+](=O)[O-])cc5)CCOCC4)c3nc12 | > 200 | 30.2 | – |
| O=C1CC2(CCc3ccccc32)C(=O)N1CN1CCN(c2ccccn2)CC1 (stereo not given) | > 87.1 | 70.8 | – |
| Cc1nn(C(=O)CC(=O)Nc2ccccc2Cl)c(C)c1N=Nc1ccccc1Cl | – | – | inactive |
| Cc1ccc(N(C(=O)Nc2ccccc2)C2=NCC(C)S2)cc1C (stereo not given) | > 200 | > 200 | – |
| N#Cc1ncc(C[P+](c2ccccc2)(c2ccccc2)c2ccccc2)nc1N | > 200 | 170 | – |
| Cn1c(-c2ccc(/C=N/N=C/c3ccc(-c4c[n+]5ccccc5n4C)cc3)cc2)c[n+]2ccccc12 | > 200 | 170 | – |
| COC(=O)N1CCc2c(nc(N(C)CCO)[nH]c2=O)C1 | > 891 | 708 | – |

| SMILES | EC50 [µM] | IC50 [µM] | outcome |
| --- | --- | --- | --- |
| Oc1cc(O)cc(-c2c(O)cc(O)cc2O)c1 | > 200 | 145 | – |
| C=CC1CN2CCC1CC2C(O)c1ccnc2ccc(OC)cc12 (stereo not given) | > 200 | > 100 | – |
| COc1ccc2nc(N/N=C/c3ccc(C)s3)cc(C)c2c1 | > 200 | 12.9 | – |
| CCOC(=O)Cc1cc(=O)oc2cc(O)ccc12 | > 200 | 166 | – |
| CCC(C)N1CN(c2ccccc2)C2(CCN(CCCC3(c4ccc(F)cc4)OCCO3)CC2)C1=O (stereo not given) | > 200 | 6.92 | – |
| c1ccc(CCn2cncn2)cc1 | > 1200 | > 1200 | – |
| O=c1oc2ccccc2n1CCCn1c(=O)oc2ccccc21 | > 200 | > 200 | – |
| CC(/C(=N\Nc1ccccc1)c1ccc(O)cc1)C1C(=O)Oc2ccccc21 (stereo not given) | – | – | inactive |
| COc1ccc(/C=C/C(=O)c2sc(NC(=S)NC(=O)c3ccc(Cl)cc3)nc2C)cc1OC | > 37.2 | > 37.2 | – |
| O=C(NCCCl)SCCO | > 1350 | > 1350 | – |
| COC(=O)NC(=O)c1cn(C2OC(CO)C(O)C2O)c(=O)[nH]c1=O (stereo not given) | > 724 | > 724 | – |
| CN(C)/N=C(/CC(O)(C(F)(F)F)C(F)(F)F)c1ccc([N+](=O)[O-])cc1 | > 200 | 31.6 | – |
| COc1ccccc1Cn1[nH]c(=O)c2cc([N+](=O)[O-])ccc21 | > 200 | 63.1 | – |
| Cc1cc(S(=O)(=O)Nc2nc(N)nc(N3N=CCC3C)n2)c(SCC(=O)O)cc1Cl (stereo not given) | > 200 | > 200 | – |
| CC1(C)COC(c2ccccc2-c2ccccc2)=N1 | > 200 | 132 | – |
| N/N=C(\c1ccccc1)c1ccc([N+](=O)[O-])cc1 | > 135 | 97.7 | – |
| C[C@]12CCC3=NCCCN3C1=CC[C@@H]1[C@@H]2CC[C@@]2(C)[C@H]1CC[C@]2(C)O | > 47.9 | > 47.9 | – |
| OCC1OC2NC(=S)OC2C(O)C1O (stereo not given) | > 200 | > 200 | – |
| Cc1ccc(/C=N/Nc2ccccn2)s1 | > 200 | > 200 | – |
| NC(N)=NS(=O)(=O)c1ccc(Nc2c3ccccc3nc3c(C(=O)N4CCN(CCO)CC4)ccc(Cl)c23)cc1 | > 38 | > 38 | – |
| O=C(OCC(Cl)(Cl)Cl)O[C@@H]1CCCC1(c1ccccc1)c1ccccc1 | > 135 | 49 | – |
| CCOC(=O)c1c(-c2cc(OC)c(OC)c(OC)c2)csc1N | > 200 | 12 | – |

| SMILES | EC50 [µM] | IC50 [µM] | outcome |
| --- | --- | --- | --- |
| CCn1c(=O)nc2n(-c3ccc(SC)cc3)c3ccccc3nc-2c1=O | – | – | inactive |
| CC1(C)CCCC2(C)[C@@H]1CC[C@]13C[C@](C)(CC[C@@H]21)[C@@H]3CO (stereo not given in full) | > 12.3 | > 12.3 | – |
| CC(C)C1=CC2=C(C(=O)C1=O)C13CCCC(C)(C)C1CC2OC3=O (stereo not given) | > 79.4 | 28.2 | – |
| CC(=O)N1C(Nc2cccc3nc(C)ccc23)CCN1c1ccccc1 (stereo not given) | > 200 | 14.8 | – |
| CC/C(Cl)=N\OC(=O)Nc1ccccc1OC(F)(F)F | > 20 | 3.16 | – |
| c1ccc2c(c1)NC1=C(CSCC1)c1nncn1-2 | > 200 | > 200 | – |
| NS(=O)(=O)c1cc[c]([Sb]=[O])cc1 | > 200 | 61.7 | – |
| COC(=O)c1cc(C(c2cc(C(=O)OC)c(O)cc2C)C(Cl)Cl)c(C)cc1O | > 91.2 | 6.46 | – |
| COc1cc(O)c2c(c1)O[C@H](C)[C@H](C)C2=O | 100 | > 200 | – |
| O=c1[nH]n(CCc2ccncc2)c(=O)c2ccccc12 | > 200 | > 200 | – |
| O=C1CCC(N2C(=O)C3C(C2=O)C2(Cl)C(Cl)=C(Cl)C3(Cl)C2(Cl)Cl)C(=O)N1 (stereo not given) | > 200 | > 200 | – |
| Cc1cccc2c1Oc1ccccc1C2NC(=O)CN(C)C (stereo not given) | > 437 | 83.2 | – |
| CC1(C)NC(c2ccccc2)c2ccsc2-n2cccc21 (stereo not given) | > 200 | > 100 | – |
| CC1=C[C@H]2O[C@@H]3C[C@H]4OC(=O)/C=C\C=C\C(C(C)O)OCC(O)C(C)CC(=O)OC[C@@]2(C[C@@H]1O)[C@]4(C)[C@@]31CO1 (stereo not given in full) | > 2 | 0.0631 | – |
| Cc1cn(C2OC(CO[Si](C)(C)C(C)(C)C)/C(=C\C#N)C2O[Si](C)(C)C(C)(C)C)c(=O)[nH]c1=O (stereo not given) | > 200 | > 200 | – |
| COc1cc(NCCN)c2ncsc2c1 | > 200 | 85.1 | – |
| C[C@@H](NC(=O)Nc1cccc(C(=O)Nc2cc(C(C)(C)C)ccc2C(=O)O)n1)c1ccccc1 | > 200 | 17.4 | – |
| CCN(CC)CCOC(=O)c1cc2ccccc2n1Cc1ccccc1 | > 100 | > 100 | – |
| O=C(COc1ccc(Cl)cc1)N1N=C(c2ccc(Cl)cc2)CC1(O)c1ccccc1 (stereo not given) | > 16.2 | > 16.2 | – |
| COC(=O)C(C)[P+](c1ccccc1)(c1ccccc1)c1ccccc1 (stereo not given) | > 200 | 5.75 | – |
| O=C(CCCN1CCC(Nc2ccc(F)cc2)(c2nnnn2C2CCCCC2)CC1)c1ccc(F)cc1 | > 200 | 16.6 | – |
| CCNC(=S)N/N=C/c1cc([N+](=O)[O-])ccc1O | > 200 | 5.01 | – |

| SMILES | EC50 [µM] | IC50 [µM] | outcome |
| --- | --- | --- | --- |
| O=C(O)C1(Cc2ccc3c(c2)CCC3)Cc2cc3c(cc2C1)CCC3 | > 200 | 35.5 | – |
| O=S(=O)(/N=S(/Nc1ccccc1)C(Cl)Cl)c1ccccc1 (stereo not given) | > 200 | > 200 | – |
| COc1ccc(C2C3CCCC(C3=O)C(c3ccc(OC)cc3)N2N=O)cc1 (stereo not given) | > 19.1 | > 19.1 | – |
| Cc1cc(Br)cc(C)c1NC(=O)C(=O)C(C(=O)c1ccc(Cl)c(Cl)c1)C1OC(=O)c2ccccc21 (stereo not given) | > 49 | 6.76 | – |
| N#Cc1c(C[n+]2ccccc2)c2ccccc2oc1=O | 617 | 646 | – |
| O=C1OI(C#Cc2ccccc2)c2ccccc21 | > 20 | 3.31 | – |
| COC(=O)C(Cc1ccccc1)NC(=O)c1ccc(CNC(=S)NCc2cccc(CNC(=S)NCc3ccccc3)c2)cc1 (stereo not given) | > 200 | 148 | – |
| CN(C)Cc1[nH]c(=O)[nH]c(=O)c1O | > 200 | 23.4 | – |
| Nc1ccccc1CN1C(=O)c2ccccc2C1=O | > 200 | 3.55 | – |
| COc1cc(/C=C2/SC(c3ccccc3)N(c3ccc(Cl)cc3)C2=O)cc(OC)c1OC (stereo not given) | – | – | inactive |
| O=P1(c2ccccc2)CCCCC1 | 0.0631 | > 200 | – |
| ON(CCc1ccccn1)CCc1ccccn1 | > 200 | > 200 | – |
| COC(=O)c1c(-c2ccccc2)cc2c3cc(-c4ccccc4)c(C(=O)OC)n3c3ccccc3n12 | > 28.8 | > 28.8 | – |
| Cn1c2c(c3ccccc31)C1CCCCCCC1C1C(=O)OC(=O)C21 (stereo not given) | – | – | inactive |
| CN(C)CC(/C(Cc1ccccc1)=N\NC(=O)c1ccncc1)c1ccccc1 (stereo not given) | > 245 | 93.3 | – |
| CC(=O)Nc1cc2cc(N=CN(C)C)ccc2oc1=O | > 263 | 148 | – |
| CC(C)OC(=S)SSC(=S)NCCNC(=S)SSC(=S)OC(C)C | > 200 | 9.77 | – |
| CC(C)N(Cc1ccccc1)S(=O)(=O)c1n[nH]c(C(C)(C)C)n1 | > 200 | > 200 | – |
| Nc1ccc(/C=C/c2ccc(N=Nc3ccc(/C=C/c4ccc(N)cc4S(=O)(=O)O)c(S(=O)(=O)O)c3)cc2S(=O)(=O)O)c(S(=O)(=O)O)c1 | 9.33 | 166 | – |
| CC(=O)NS(=O)(=O)c1ccc(NCc2cccc3c(=O)c4ccc(Cl)cc4oc23)cc1 | > 200 | 3.16 | – |
| C/C(=N/NC(=S)Nc1cccc(Cl)c1)c1cccc(/C(C)=N\NC(=S)Nc2cccc(Cl)c2)n1 | > 200 | 5.25 | – |
| CC(=O)NC1C(OC(C)C(=O)NC(C(=O)NC(CCC(=O)NCCCNC2c3ccccc3Nc3cccc([N+](=O)[O-])c32)C(N)=O)C(C)C)C(O)C(CO)OC1(C)OCc1ccccc1 (stereo not given) | > 10 | 1.74 | – |
